# Data published in patent US11026877B2, “Cosmetic compositions for bleaching the skin” (Henkel AG & Co. KGaA, priority 2014, dated 2021).
# Columns and labels:
# Assay type in all cases: cell-based, human
# Set-up in all cases: key: + stands for increased expression; − for reduced expression; 0 for no change
# Conditions in all cases: topical, 24 hours, 30 μL, in water with 3% by weight PEG-40 Hydrogenated Castor Oil; in comparison with the blank control
# [1] = system: gp100; assay: Gene expression by quantitative real-time PCR in reconstructed melanocyte models type VI (Skinethic): gp100
# Procedure: (§1) The effect of licorice extract (oil-soluble) and ascorbyl tetraisopalmitate on the expression of melanogenesis-relevant genes was studied in reconstructed melanocyte models type VI from the company Skinethic. In this case, human keratinocytes were cultured together with type VI melanocytes, so that a very dark skin model forms. Together the cells form a three-dimensional epithelial tissue. Three models each were treated topically for 24 hours with 30 μL of the test formulations. In this case, the formulation is first applied to the model and then carefully distributed with a brush. Incubation then occurs at 37° C. with 5% CO2. Untreated models and models treated with a blank control (3% PEG-40 Hydrogenated Castor Oil in water) were run concurrently as the control. The gene expressions of the melanocyte-specific markers were studied using quantitative real-time PCR. […] In the subsequent PCR reaction, which is carried out with the aid of gene-specific primers for the particular markers and is used for the amplification of the target gene segments, the formation of the PCR products is detected online via a fluorescence signal. The fluorescence signal in this case is proportional to the amount of the formed PCR product. The greater the expression of a specific gene, the greater the amount of the formed PCR product and the greater the fluorescence signal. […]
# [2] = system: Tyrosinase; assay: Gene expression by quantitative real-time PCR in reconstructed melanocyte models type VI (Skinethic): Tyr
# Procedure: as §1
# [3] = system: TRP2; assay: Gene expression by quantitative real-time PCR in reconstructed melanocyte models type VI (Skinethic): TRP2
# Procedure: as §1
# [4] = system: ckit; assay: Gene expression by quantitative real-time PCR in reconstructed melanocyte models type VI (Skinethic): ckit
# Procedure: as §1
# [5] = system: TRP1; assay: Gene expression by quantitative real-time PCR in reconstructed melanocyte models type VI (Skinethic): TRP1
# Procedure: as §1
compound,measurement,setting,value
"CCCCCCCCC(CCCCCC)C(=O)OC[C@H](OC(=O)C(CCCCCC)CCCCCCCC)[C@H]1OC(=O)C(OC(=O)C(CCCCCC)CCCCCCCC)=C1OC(=O)C(CCCCCC)CCCCCCCC (some centres unmarked) [0.05% Vitamin tetraisopalmitate, ascorbyl tetraisopalmitate]",Gp100 gene expression,[1],−
same,Tyr gene expression,[2],+
same,TRP2 gene expression,[3],+
same,ckit gene expression,[4],0
same,TRP1 gene expression,[5],−
